Read-outs that look alike come from different tables or passages of the source.
Legend:
HBV [1] = experiment: Antiviral assay in HepG2.2.15 cells (HBsAg/HBeAg CLIA, secreted HBV DNA qPCR); format: cell-based, hepatitis B virus; settings: Hepatitis B virus
Human rhinovirus = experiment: Antiviral selectivity panel, CPE in H1-HeLa cells; format: cell-based; settings: Human rhinovirus sp.
in vitro = format: cell-based; settings: human
Excerpt: TABLE 3 Cytotoxicity of AB-452 against cells derived from various tissues | column: AB-452 CC50 (μM)

recombinant human PAPD7 = target: T1, recombinant human PAPD7 (Homo sapiens, UniProt Q5XG87); experiment: PAPD7 ATP depletion assay; format: biochemical
T1 construct: PAPD7 (amino acids 226 to 558; NM_006999.6); 10xHis (N); Flag (N); TEV cleavage site (N); host or cells: E. coli BL21(DE3), vector pET-24a(+)
Protocol: Molecular cloning, expression, and purification of the recombinant human PAPD5 and PAPD7 proteins were performed at Xtal BioStructures (MA, USA). PAPD5 (amino acids 186 to 518; GenBank accession no. XM_011523275) and PAPD7 (amino acids 226 to 558; GenBank accession no. NM_006999.6) genes comprising of nucleotidyltransferase and PAP-associated domains were codon optimized, synthesized, and inserted in the expression vector pET-24a(+) for E. coli expression with 10×His-Flag-tobacco etch virus (TEV) tags at the N terminus. The pET-24a(+) constructs were transformed into E. coli-competent cells BL21(DE3). […] Expression of protein was induced for 16 h with 0.2 mM IPTG (isopropyl-β-D-thiogalactopyranoside) at 18°C. […] Roche). Cell suspension was sonicated 8 × 20 s at 27 to 30 W (power level, 3.5 to 4.0) with 40-s breaks between each pulse. Lysate was cleared by centrifugation in a 50-ml conical tube at 20,000 × g for 30 min (Fiberlite F13-14 × 50cy rotor in a Sorvall RC6 centrifuge). Supernatant was incubated with Ni-charged MagBeads (GenScript; catalog no. […] Bound proteins were washed with 50 ml binding buffer and eluted in elution buffer containing a gradient of imidazole ranging from 5 to 500 mM. Peak fractions were pooled and stored in 50% glycerol at -80°C. Reactions were carried out in duplicate in 96-well low-profile, skirted, white plates (catalog no. AB0800WL; […] The reaction mixtures were incubated at room temperature for 3 h, and ATP depletion was monitored by using Kinase-Glo luminescent kinase kit following the manufacturer's instructions (catalog no. V6712; Promega, WI, USA).

HBV [2] = experiment: AAV-HBV-transduced mouse model; settings: 7 days; for mean reduction of serum HBV DNA vs vehicle / mean reduction of serum HBsAg vs vehicle / reduction of intrahepatic HBsAg levels / reduction of intrahepatic pgRNA levels / reduction of intrahepatic total HBV RNA levels: oral
Protocol: Male C57BL/6J mice, 6 weeks old, were each inoculated with 1E11 genomes of adeno-associated virus (AAV) vector AAV-HBV1.2 containing a 1.2× overlength sequence of HBV genome (genotype D; GenBank accession no. V01460) ([2]). Mice were administered the AAV2/8-type vector via intravenous tail vein injection. Twenty-eight days after AAV infection, animals were randomized into groups (n = 5) based on serum HBsAg concentration. […] Serum and liver HBsAg concentrations were determined using the Bio-Rad enzyme immunoassay (EIA) GS HBsAg 3.0 kit according to the manufacturer's instructions. […] Total HBV RNA concentrations in the liver were quantified using a branched DNA assay (QuantiGene 2.0; Thermo Fisher Scientific) with probes targeting the shared 3′ region of HBV transcripts, whereas 3.5 kb HBV RNA concentrations were quantified with probes targeting the unique 5′ region of the pgRNA; in both cases, signal was normalized against mouse glyceraldehyde 3-phosphate dehydrogenase (GAPDH).

HBV PRE = HBV PRE cis-element reporter plasmids (HBsAg or Gluc) transfected in Huh-7 cells; settings: Hepatitis B virus

T1 sequence (Q5XG87 226-558): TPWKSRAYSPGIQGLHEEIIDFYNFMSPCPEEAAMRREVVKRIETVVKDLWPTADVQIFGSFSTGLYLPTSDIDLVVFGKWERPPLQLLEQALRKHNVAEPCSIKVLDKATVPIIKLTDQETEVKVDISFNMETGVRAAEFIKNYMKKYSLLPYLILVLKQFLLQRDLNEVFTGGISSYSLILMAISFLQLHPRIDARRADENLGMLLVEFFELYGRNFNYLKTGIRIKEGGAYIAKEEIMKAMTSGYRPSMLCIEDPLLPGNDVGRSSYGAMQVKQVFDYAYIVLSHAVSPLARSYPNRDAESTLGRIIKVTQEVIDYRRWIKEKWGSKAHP

`COCCCOc1cc2c(nc1OC)-c1cc(=O)c(C(=O)O)cn1[C@H](C(C)C)C2` [AB-452] showed an EC50 (HBV [1]; HepG2-2.2.15, Table 2, read-out: EC50, HBV (HBsAg)) of 1.2 nM, an EC50 (HBV [1]; HepG2.2.15 cells, read-out: HBV DNA EC50) of 0.28 ± 0.01 nM and an EC50 (HBV [1]; HepG2.2.15 cells, read-out: HBeAg EC50) of 2.8 ± 2.1 nM. For the same molecule, the EC50 (HBV [1]; HepG2.2.15 cells, read-out: HBsAg EC50) was 1.4 ± 0.2 nM, the EC50 (Human rhinovirus) was over 30000 nM and the CC50 (in vitro) was over 30000 nM. For the same molecule, the IC50 (recombinant human PAPD7) was 498 nM, the “mean reduction of serum HBV DNA vs vehicle” value (HBV [2]; 0.1 mg/kg twice daily) was 0.79 log10 and the “mean reduction of serum HBsAg vs vehicle” value (HBV [2]; 0.1 mg/kg twice daily) was 0.68 log10. The “reduction of intrahepatic HBsAg levels” value (HBV [2]; 0.1 mg/kg twice daily) was 64%, the “reduction of intrahepatic pgRNA levels” value (HBV [2]; 0.1 mg/kg twice daily) was 43% and the “reduction of intrahepatic total HBV RNA levels” value (HBV [2]; 0.1 mg/kg twice daily) was 35%. The “mean reduction of serum HBV DNA vs vehicle” value (HBV [2]; 0.3 mg/kg twice daily) was 1.16 log10, the “mean reduction of serum HBsAg vs vehicle” value (HBV [2]; 0.3 mg/kg twice daily) was 0.72 log10 and the “reduction of intrahepatic HBsAg levels” value (HBV [2]; 0.3 mg/kg twice daily) was 69%. For the same molecule, the “reduction of intrahepatic pgRNA levels” value (HBV [2]; 0.3 mg/kg twice daily) was 55%, the “reduction of intrahepatic total HBV RNA levels” value (HBV [2]; 0.3 mg/kg twice daily) was 55% and the “mean reduction of serum HBV DNA vs vehicle” value (HBV [2]; 1 mg/kg twice daily) was 0.94 log10. The “mean reduction of serum HBsAg vs vehicle” value (HBV [2]; 1 mg/kg twice daily) was 0.93 log10, the “reduction of intrahepatic HBsAg levels” value (HBV [2]; 1 mg/kg twice daily) was 83% and the “reduction of intrahepatic pgRNA levels” value (HBV [2]; 1 mg/kg twice daily) was 63%. The “reduction of intrahepatic total HBV RNA levels” value (HBV [2]; 1 mg/kg twice daily) was 66%, the “tolerability / body weight” value (HBV [2]; oral, 0.1, 0.3, 1 mg/kg twice daily, vs vehicle) was “well tolerated, with no significant change or reduction in body weight” and the EC50 (HBV PRE; 120 h, read-out: EC50, Gluc_dHBx (Gluc activity)) was 4.2 nM. The EC50 (HBV PRE; 120 h, read-out: EC50, H133_Gluc (Gluc activity)) was 10 nM, the EC50 (HBV PRE; Huh-7, 120 h, read-out: EC50, Gluc_rcSLα (Gluc activity)) was over 100 nM and the EC50 (HBV PRE; Huh-7, 120 h, read-out: EC50, H133 (HBsAg)) was 2.5 nM. It also gave an EC50 (HBV PRE; Huh-7, 120 h, read-out: EC50, H133_dLa (HBsAg)) of 4.3 nM.

Reference: publication PMC8387043, “Host Poly(A) Polymerases PAPD5 and PAPD7 Provide Two Layers of Protection That Ensure the Integrity and Stability of Hepatitis B Virus RNA” (Journal of Virology, 2021)
